Each structure is given as a SMILES string.

Common to all, as to test: Post-emergence herbicidal glasshouse test, percentage damage to the plant
What all share (assay type): in vivo
Details in all cases: post-emergence, 1000 g/ha, evaluated after 13 days

For experiment [1], the system named is Alopecurus myosuroides (ALOMY). Summed up: (§1)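 Activity appears as a score from 1 (0-19% damage) to 5 (80-100%), assessed 13 days after a post-emergence spray of 8-day-old plants. Comparative runs used 250, 500 and 1000 g/ha; the standard rate was 1000 g/ha, formulated in acetone/water (50:50) with 0.5% Tween 20.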
The test system of experiment [2] is Amaranthus retoflexus (AMARE). The procedure, abridged: as §1
The test system of experiment [3] is Echinochloa crus-galli (ECHCG). Summed up: as §1
Experiment [4] has as its system Ipomoea hederacea (IPOHE). Summed up: as §1
Experiment [5] deals with Setaria faberi (SETFA). The procedure, abridged: as §1
Experiment [6] deals with Solanum nigrum (SOLNI). The procedure, abridged: as §1

As for `CCCCC1=NN(C)C(=O)C(n2c(Cl)c(Cl)c3ccccc32)C1=O` (stereo not drawn) [Compound 2.010], the “POST Application ALOMY, percentage damage (five point scale)” value in experiment [1] is on record as 1 (1=0-19%). Moreover, the “POST Application AMARE, percentage damage (five point scale)” value in experiment [2] is reported as 3 (3=40-59%). Further, the “POST Application ECHCG, percentage damage (five point scale)” value in experiment [3] is reported as 1 (1=0-19%). Besides, the “POST Application IPOHE, percentage damage (five point scale)” value in experiment [4] is 3 (3=40-59%). Moreover, in experiment [5], the “POST Application SETFA, percentage damage (five point scale)” value is reported as 1 (1=0-19%). Further, the “POST Application SOLNI, percentage damage (five point scale)” value in experiment [6] was 4 (4=60-79%).

With `CN1N=C([S+](C)[O-])C(=O)C(n2c(Cl)c(Cl)c3ccccc32)C1=O` (stereo not drawn) [Compound 2.005], the “POST Application ALOMY, percentage damage (five point scale)” value in experiment [1] is on record as 1 (1=0-19%). For the same compound, the “POST Application AMARE, percentage damage (five point scale)” value in experiment [2] is reported as 2 (2=20-39%). For the same compound, in experiment [3], the “POST Application ECHCG, percentage damage (five point scale)” value is 1 (1=0-19%). Also, the “POST Application IPOHE, percentage damage (five point scale)” value in experiment [4] is recorded as 5 (5=80-100%). The “POST Application SETFA, percentage damage (five point scale)” value in experiment [5] is on record as 1 (1=0-19%). In experiment [6], the “POST Application SOLNI, percentage damage (five point scale)” value is on record as 5 (5=80-100%).

As for `CN1N=CC(=O)C(n2cc(Cl)c3ccccc32)C1=O` (stereo not drawn) [Compound 1.012, 4-(3-Chloro-indol-1-yl)-2-methyl-2H-pyridazine-3,5-dione], the “POST Application ALOMY, percentage damage (five point scale)” value in experiment [1] was 1 (1=0-19%). Besides, the “POST Application AMARE, percentage damage (five point scale)” value in experiment [2] is recorded as 5 (5=80-100%). For the same compound, the “POST Application ECHCG, percentage damage (five point scale)” value in experiment [3] is listed as 2 (2=20-39%). Also, the “POST Application IPOHE, percentage damage (five point scale)” value in experiment [4] is on record as 5 (5=80-100%). Further, in experiment [5], the “POST Application SETFA, percentage damage (five point scale)” value is 5 (5=80-100%). Besides, the “POST Application SOLNI, percentage damage (five point scale)” value in experiment [6] is listed as 5 (5=80-100%).

Source of the values: US9049864B2, “Pyridazinone herbicidal compounds” (Syngenta Limited, priority 2012, dated 2015).
